Series [1] deals with enteric hemorrhage of each rat. Description: Test Example 1: inhibition of enteric hemorrhage induced by intravenous lipopolysaccharide (E. coli) in rats. The class given is in vivo, SD male rats. To be noted: ip, 30 min before LPS 10 mg/kg i.v., 1 h after LPS, read-out: Inhibition rate; for inhibition in vivo at 25 mg/kg: 25 mg/kg i.p.; for inhibition in vivo at 12.5 mg/kg: 12.5 mg/kg i.p.; for inhibition in vivo at 50 mg/kg: 50 mg/kg i.p. The method, then: A drug having a test compound dissolved in the form of its Na^+ salt or Cl^- salt in saline or suspended in saline containing 0.5% by weight of carboxymethyl cellulose (manufactured by Nakalai Tesque K. K., hereinafter referred to simply as CMC), was intraperitonially injected to SD male rats of seven weeks old. […] One hour after the injection of the lipopolysaccharide, enteric hemorrhage of each rat was inspected, and the degree of hemorrhage was evaluated by the following ratings:
(§1) 2: Slight subepithelial congestion
(§2) 4: Subepithelial congestion over a wide range and slight submucous congestion
6: Submucous congestion over a wide range, flow out of blood from submucous tissues and necrosis
For the control, the test was conducted in the same manner except that no test compound was added.
The inhibition rate was obtained by the following formula.
(§3) Inhibition rate (%)=(A-B)/A×100
(§4) B: rating of a rat administered with a test compound

The nature of series [2]: Test Example 2: Acute Toxicity. Particulars: mouse, in vivo, ip, DDY male mice, five mice per group, read-out: 50% lethal dose LD50. The method, then:
Using DDY male mice of five weeks old, each group consisted of five mice. A test compound was suspended in saline containing 0.5% by weight of CMC and intraperitonially injected at a dose of 0.1 ml/10 g. 24 hours after the injection, survival or death was observed, and the number of death/the number of tested animals was obtained, and the 50% lethal dose LD50 was estimated, whereby LD50 of each of Compound Nos. 4, 9, 10, 15, 21, 25, 30, 33, 37, 44, 47, 58, 60 and 67 was at least 100 mg/kg.

For series [3], the system named is DDY male mice. Briefly: Test Example 4: survival of mice after intravenous platelet-activating factor (PAF). Format: in vivo. Particulars: 100 mg/kg i.p. 1 h before PAF (10 μg/ml, 15 ml/kg i.v.); 1 h after PAF; control 0% (Nos. 21, 71, 78) or 14% (Nos. 22, 47). The method, then: A drug having a test compound dissolved in the form of its Na^+ salt or or Cl^- salt in saline or suspended in saline containing 0.5% by weight of CMC, was intraperitonially injected to DDY male mice of five weeks old so that the dose would be 100 mg/kg. One hour after the injection of the drug, a solution (containing 1% by weight of dimethylsulfoxide) having a platelet-activating factor (PAF) dissolved in saline to a concentration of 10 μg/ml, was intravenously injected into the tail vein of each mouse in an amount of 15 ml/kg.
One hour after the injection of PAF, survival or death of each mouse was observed, and the survival rate was obtained by the following formula, whereby with Compound Nos. 21, 47, 71 and 78, the survival rate was 100%, and with Compound No. 22, the survival rate was 80%.
Further, for the control, the test was conducted in the same manner except that no test compound was added, whereby with each control corresponding to the test group for each of Compound Nos. 21, 71 and 78, the survival rate was 0%, and in the case of Compound Nos. 22 and 47, the survival rate of the control was 14%.
(§5) Survival rate (%)=(number of survived animals/number of tested

The test system of series [4] is enteric hemorrhage of each rat. Briefly: Test Example 5: inhibition of enteric hemorrhage induced by intravenous PAF in rats. To be noted: 12.5 mg/kg i.p. 30 min before PAF (10 μg/ml, 1 ml/kg i.v.); 1 h after PAF. Format: in vivo, SD male rats. The procedure: A drug having a test compound dissolved in the form of its Na^+ salt or or Cl^- salt in saline or suspended in saline containing 0.5% by weight of CMC, was intraperitonially injected to SD male rats of seven weeks old so that the dose of the test compound would be 12.5 mg/kg. 30 minutes after the injection of the drug, a solution (containing 1% by weight of dimethylsulfoxide) having PAF dissolved in saline to a concentration of 10 μg/ml, was intravenously injected into the tail vein of each rat in an amount of 1 ml/kg.
One hour after the injection of PAF, enteric hemorrhage of each rat was inspected, and the degree of hemorrhage was evaluated by the following ratings:
as §1, §2
6: Submucous congestion over a wide range, flow out of blood from the submucous tissues and necrosis
as §3, §4

For series [5], the system named is SD male rats. Briefly: Test Example 3: survival of rats after intravenous lipopolysaccharide (E. coli). The class given is in vivo. Particulars: 50 mg/kg i.p. 30 min before and again 3 h after LPS 10 mg/kg i.v.; 48 h; control 0%. The procedure: A drug having a test compound suspended in saline containing 0.5% by weight of CMC, was intraperitonially administered to SD male rats of seven weeks old so that the dose would be 50 mg/kg. 30 minutes after the injection of the drug, lipopolysaccharide derived from E. coli (manufactured by Difco Company, Product No. 0127:B8) was intravenously injected into the tail vein of each rat so that the dose would be 10 mg/kg. Three hours after the injection of the lipopolysaccharide, the drug was again intraperitonially administered in the same amount.
as §5

The values that follow come from US5763439A, “Pyridazinone derivatives or their salts, processes for their production, and anti-shock agents containing them” (Ishihara Sangyo Kaisha Ltd., priority 1993, dated 1998).

`Cc1c(NC(=O)c2ccncc2)cnn(C(C)(C)C)c1=O` [Compound No. 1, 2-tert-butyl-4-methyl-5-(4-pyridylcarbonylamino)pyridazin-3-(2H)-one]: the inhibition in vivo at 25 mg/kg in series [1] turned out to be 96%.
Turning to `CC(C)(C)n1ncc(NCc2ccncc2)c(C=NCc2ccncc2)c1=O` [Compound No. 2, 2-tert-butyl-5-(4-pyridylmethylamino)-4-(4-pyridylmethyliminomethylidenyl)pyridazin-3-(2H)-one], in series [1], the inhibition in vivo at 12.5 mg/kg stood at 75% and the inhibition in vivo at 25 mg/kg came out at 98%.
For `CSc1c(NCc2ccncc2)cnn(C(C)(C)C)c1=O` [Compound No. 7, 2-tert-butyl-4-methylthio-5-(4-pyridylmethylamino)pyridazin-3-(2H)-one], in series [1], the inhibition in vivo at 12.5 mg/kg is 78% and the inhibition in vivo at 50 mg/kg stood at 100%.
Take `C[S+]([O-])c1c(NCc2ccncc2)cnn(C(C)(C)C)c1=O` (stereo not shown) [Compound No. 8, 2-tert-butyl-4-methanesulfinyl-5-(4-pyridylmethylamino)pyridazin-3-(2H)-one]: the inhibition in vivo at 12.5 mg/kg in series [1] is 72%.
For orientation: LD50 means the dose expected to kill half of the subjects tested. In the case of `CC(C)(C)n1ncc(NCc2ccncc2)c(S(C)(=O)=O)c1=O` [Compound No. 9, 2-tert-butyl-4-methanesulfonyl-5-(4-pyridylmethylamino)pyridazin-3-(2H)-one], the LD50 at 24 h in series [2] is at least 100 mg/kg. In series [1], the inhibition in vivo at 50 mg/kg was determined as 43%.
Take `CC(C)(C)n1ncc(NCc2ccncc2)c(N)c1=O` [Compound No. 10, 4-amino-2-tert-butyl-5-(4-pyridylmethylamino)pyridazin-3-(2H)-one]: the LD50 at 24 h in series [2] was at least 100 mg/kg. In addition, in series [1], the inhibition in vivo at 12.5 mg/kg worked out at 50% and the inhibition in vivo at 50 mg/kg turned out to be 94%.
Consider `CON=Cc1c(NCc2ccncc2)cnn(C(C)(C)C)c1=O` [Compound No. 16, 2-tert-butyl-5-(4-pyridylmethylamino)-4-methoxyiminomethylidenylpyridazin-3-(2H)-one], for which the inhibition in vivo at 100 mg/kg in series [1] (100 mg/kg i.p.) is 100%.
As for `CC(C)(C)n1ncc(NCc2ccncc2)c(C#N)c1=O` [Compound No. 21, 2-tert-butyl-4-cyano-5-(4-pyridylmethylamino)pyridazin-3-(2H)-one], the LD50 at 24 h in series [2] is at least 100 mg/kg. This molecule gave a Survival rate in series [3] of 100%. Moreover, in series [1], the inhibition in vivo at 12.5 mg/kg worked out at 65%, the inhibition in vivo at 25 mg/kg is 96% and the inhibition in vivo at 50 mg/kg is 100%.
In turn, `COC(=O)c1c(NCc2ccncc2)cnn(C(C)(C)C)c1=O` [Compound No. 22, 2-tert-butyl-4-methoxycarbonyl-5-(4-pyridylmethylamino)pyridazin-3-(2H)-one] returned a Survival rate in series [3] of 80%. Also, in series [1], the inhibition in vivo at 12.5 mg/kg was determined as 41% and the inhibition in vivo at 25 mg/kg was determined as 100%.
For `CC(C)(C)n1ncc(NCc2ccncc2)c(C=O)c1=O` [Compound No. 24, 2-tert-butyl-4-formyl-5-(4-pyridylmethylamino) pyridazin-3-(2H)-one], the inhibition in vivo at 50 mg/kg in series [1] worked out at 100%.
For `CCC(=O)Nc1c(NCc2ccncc2)cnn(C(C)(C)C)c1=O` [Compound No. 28, 2-tert-butyl-4-propionylamide-5-(4-pyridylmethylamino)pyridazin-3-(2H)-one], in series [1], the inhibition in vivo at 12.5 mg/kg was determined as 42% and the inhibition in vivo at 50 mg/kg is 83%.
As to `CC(C)(C)n1ncc(NCc2ccncc2)c(N(S(C)(=O)=O)S(C)(=O)=O)c1=O` [Compound No. 30, 2-tert-butyl-4-N,N-bis(methanesulfonyl)amino-5-(4-pyridylmethylamino)pyridazin-3-(2H)-one], the median lethal dose (LD50) at 24 h in series [2] is at least 100 mg/kg.
In the case of `CC1CCOC(c2c(NCc3ccncc3)cnn(C(C)(C)C)c2=O)O1` (stereo not shown) [Compound No. 44, 2-tert-butyl-4-(4-methyl-1,3-dioxan-2-yl)-5-(4-pyridylmethylamino)pyridazin-3-(2H)-one], the LD50 at 24 h in series [2] is at least 100 mg/kg. The inhibition in vivo at 12.5 mg/kg in series [1] stood at 77%.
With `CCn1ncc(NCc2ccncc2)c(C#N)c1=O` [Compound No. 47, 4-cyano-2-ethyl-5-(4-pyridylmethylamino)pyridazin-3-(2H)-one], the LD50 at 24 h in series [2] is at least 100 mg/kg. Moreover, in series [3], the Survival rate is listed as 100%. Besides, the inhibition in vivo at 12.5 mg/kg in series [1] came out at 75%.
In turn, `CC(=O)N(C)c1c(NCc2ccncc2)cnn(C)c1=O` [Compound No. 69, 2-methyl-4-(N-methyl)acetylamino-5-(4-pyridylmethylamino)pyridazin-3-(2H)-one] displayed an Inhibition rate in series [4] of 100%. The inhibition in vivo at 12.5 mg/kg in series [1] stood at 78%.
For the molecule `Cn1ncc(NCc2ccncc2)c(CO)c1=O` [Compound No. 70, 4-hydroxymethyl-2-methyl-5-(4-pyridylmethylamino)pyridazin-3-(2H)-one], the Survival rate in series [5] was 50%. Moreover, the inhibition in vivo at 12.5 mg/kg in series [1] worked out at 72%.
Molecule `COCc1c(N(C)Cc2ccncc2)cnn(C)c1=O` [Compound No. 73, 4-methoxymethyl-2-methyl-5-(N-methyl-4-pyridylmethylamino)pyridazin-3-(2H)-one] came in with an Inhibition rate in series [4] of 92%. The Survival rate in series [5] is 75%. Besides, in series [1], the inhibition in vivo at 12.5 mg/kg was 76%.
`COCc1c(NCc2ccncc2)cnn(C)c1=O` [Compound No. 105, 4-methoxymethyl-2-methyl-5-(4-pyridylmethylamino)pyridazin-3-(2H)-one]: in series [1], the inhibition in vivo at 12.5 mg/kg came to 92%.
